Type in all cases: functional
The target in test [1] is T1, Kappa-type opioid receptor (Homo sapiens, UniProt P41145). Nature of the test: Antagonist activity at kappa opioid receptor by [35S]GTPgammaS binding assay.
The target in test [2] is T1, Kappa-type opioid receptor. Description: Agonist activity at kappa opioid receptor by [35S]GTPgammaS binding assay.
In test [3] the target is T1, Kappa-type opioid receptor. Description: Agonist activity at kappa opioid receptor by [35S]GTPgammaS binding assay relative to (-)-U50,488H.

Each structure is given as a SMILES string. pEC50, pKi: −log10 of the molar value.

T1 sequence (P41145 whole entry): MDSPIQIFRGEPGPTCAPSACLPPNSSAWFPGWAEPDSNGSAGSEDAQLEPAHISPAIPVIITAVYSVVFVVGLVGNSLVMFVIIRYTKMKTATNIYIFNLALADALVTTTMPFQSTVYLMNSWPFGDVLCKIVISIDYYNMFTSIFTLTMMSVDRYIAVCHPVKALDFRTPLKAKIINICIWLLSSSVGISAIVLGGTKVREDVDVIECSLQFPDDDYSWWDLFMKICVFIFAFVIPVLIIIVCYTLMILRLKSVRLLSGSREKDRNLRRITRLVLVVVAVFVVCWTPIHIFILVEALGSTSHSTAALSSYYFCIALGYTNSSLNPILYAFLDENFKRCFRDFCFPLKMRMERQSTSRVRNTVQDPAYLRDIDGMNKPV

In the case of `COC(=O)[C@@H]1C[C@H](OC(C)=O)C(=O)[C@@H]2[C@@]3(C)C[C@@H]([C@]4(O)[C@@H](OC)O[C@@H](OC)[C@H]4O)CC(=O)[C@@H]3CC[C@]21C` [SALVINICIN B], the pKi in test [1] was less than 5.72. For `COC(=O)[C@@H]1C[C@H](OC(C)=O)C(=O)[C@H]2[C@@]1(C)CC[C@H]1C(=O)O[C@H]([C@]3(O)[C@H](OC)O[C@H](OC)[C@H]3O)C[C@]21C` [SALVINICIN A], the pEC50 in test [2] was 5.39. The Emax in test [3] came to 80%.

These data come from ChEMBL document CHEMBL1151982, “Natural products as tools for neuroscience: discovery and development of novel agents to treat drug abuse” (J Nat Prod, 2009).
